Where two headings read alike, the source gives them in different places.
Assays:
GANAB = molecular target: T1, GANAB (Homo sapiens, UniProt Q14697); experiment: intact cells treated, residual activity in lysate with 4MU-alpha-D-glucopyranoside; assay type: cell-based; conditions: 24 h treatment of intact HEK293T cells, assay pH 7.0
T1 construct: endogenous enzyme in HEK293T cells (GBA2-expressing line); beta subunit not mentioned
T1 sequence (Q14697 29-944): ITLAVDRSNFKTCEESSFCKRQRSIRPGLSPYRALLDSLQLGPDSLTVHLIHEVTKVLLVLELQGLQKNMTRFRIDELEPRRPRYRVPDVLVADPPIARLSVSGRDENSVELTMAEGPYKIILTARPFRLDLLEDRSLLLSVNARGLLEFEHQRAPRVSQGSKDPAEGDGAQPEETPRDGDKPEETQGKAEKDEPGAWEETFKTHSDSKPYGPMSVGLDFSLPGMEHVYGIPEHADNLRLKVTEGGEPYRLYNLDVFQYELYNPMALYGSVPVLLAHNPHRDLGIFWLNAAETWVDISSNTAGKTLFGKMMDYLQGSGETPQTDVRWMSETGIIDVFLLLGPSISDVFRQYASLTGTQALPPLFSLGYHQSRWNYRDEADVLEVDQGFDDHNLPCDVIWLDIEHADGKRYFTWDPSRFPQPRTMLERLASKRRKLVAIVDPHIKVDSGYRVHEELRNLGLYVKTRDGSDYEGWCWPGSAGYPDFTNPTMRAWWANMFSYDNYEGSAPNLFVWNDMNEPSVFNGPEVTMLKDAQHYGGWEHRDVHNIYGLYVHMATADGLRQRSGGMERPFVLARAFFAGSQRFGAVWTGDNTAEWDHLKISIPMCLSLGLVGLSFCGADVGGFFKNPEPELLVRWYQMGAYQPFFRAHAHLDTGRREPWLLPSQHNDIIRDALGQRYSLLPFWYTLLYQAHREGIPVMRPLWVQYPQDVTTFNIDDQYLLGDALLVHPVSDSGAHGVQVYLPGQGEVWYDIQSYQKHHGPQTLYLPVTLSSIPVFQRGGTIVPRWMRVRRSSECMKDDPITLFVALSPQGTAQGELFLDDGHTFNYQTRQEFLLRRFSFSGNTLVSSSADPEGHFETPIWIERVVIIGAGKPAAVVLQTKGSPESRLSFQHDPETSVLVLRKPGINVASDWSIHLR

GBA (zebrafish larvae) = molecular target: T2, GBA (zebrafish larvae) (Danio rerio, UniProt E7EZM1); experiment: live larvae exposed, residual activity in lysate with 4MU-glucoside; conditions: covalent, in vivo: concentration in egg water, 5 days at 28.5 °C, assay pH 5.2 with AMP-DNM
T2 construct: gene gba1; endogenous enzyme in larvae, measured in larval lysate
T2 sequence (E7EZM1 20-518): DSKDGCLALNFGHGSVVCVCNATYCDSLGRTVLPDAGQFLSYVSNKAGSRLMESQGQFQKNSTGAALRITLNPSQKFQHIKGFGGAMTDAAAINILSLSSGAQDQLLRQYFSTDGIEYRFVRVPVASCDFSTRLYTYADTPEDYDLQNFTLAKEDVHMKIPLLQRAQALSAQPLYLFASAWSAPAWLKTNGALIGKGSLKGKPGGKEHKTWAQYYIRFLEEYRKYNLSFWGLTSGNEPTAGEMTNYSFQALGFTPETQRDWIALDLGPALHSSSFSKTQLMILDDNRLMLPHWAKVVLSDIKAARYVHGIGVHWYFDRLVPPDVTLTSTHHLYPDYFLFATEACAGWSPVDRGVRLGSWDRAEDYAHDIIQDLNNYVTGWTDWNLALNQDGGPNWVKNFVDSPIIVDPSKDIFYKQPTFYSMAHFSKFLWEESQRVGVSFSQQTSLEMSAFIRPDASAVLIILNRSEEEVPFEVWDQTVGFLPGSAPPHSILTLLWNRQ
Source text: live larvae exposed, residual activity in lysate with 4MU-glucoside on GBA (zebrafish larvae)

[1] = molecular target: T3, recombinant human GBA (rGBA, imiglucerase) (Homo sapiens, UniProt P04062, R534H); experiment: residual activity, fluorogenic 4MU-glucoside assay; assay type: biochemical; conditions: covalent, irreversible, 180 min preincubation, pH 5.2, 37 °C, 0.2% taurocholate, 0.1% Triton X-100, 3.75 mM 4MU-beta-D-glucopyranoside
T3 construct: gene GBA1; imiglucerase (Sanofi Genzyme), mature secreted enzyme
T3 sequence (P04062 40-536 R534H): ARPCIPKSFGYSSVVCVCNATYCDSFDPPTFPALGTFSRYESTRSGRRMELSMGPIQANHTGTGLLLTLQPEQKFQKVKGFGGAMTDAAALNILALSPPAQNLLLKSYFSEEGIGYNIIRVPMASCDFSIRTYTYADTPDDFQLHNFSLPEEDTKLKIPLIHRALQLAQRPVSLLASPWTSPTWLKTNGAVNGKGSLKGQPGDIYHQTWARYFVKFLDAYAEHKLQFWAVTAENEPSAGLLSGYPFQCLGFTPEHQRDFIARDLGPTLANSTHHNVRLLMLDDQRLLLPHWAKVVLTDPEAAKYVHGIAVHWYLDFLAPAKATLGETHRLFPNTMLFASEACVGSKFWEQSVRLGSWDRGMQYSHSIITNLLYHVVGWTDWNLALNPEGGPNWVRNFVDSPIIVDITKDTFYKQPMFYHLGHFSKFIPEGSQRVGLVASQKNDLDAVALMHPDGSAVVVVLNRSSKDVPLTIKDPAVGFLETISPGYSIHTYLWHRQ
Source text: residual activity, fluorogenic 4MU-glucoside assay on recombinant human GBA (rGBA, imiglucerase)

For `OC1C(O)C(O)C2OC2C1O` (stereo not drawn) [compound 1, conduritol B epoxide], the IC50 (GANAB; covalent, read-out: CBE / Enz. assay) was 1580 µM, the IC50 (GBA (zebrafish larvae); read-out: CBE / Enz. assay) was 58.5 µM and the IC50 ([1]; read-out: CBE / Enz. assay) was 4.28 µM.
Work on `OC[C@@H]1[C@@H](O)[C@H](O)[C@@H](O)[C@@H]2O[C@H]12` [compound 2, cyclophellitol] yielded an IC50 (GANAB; read-out: apparent IC50) of over 10 µM, an IC50 (GBA (zebrafish larvae); read-out: CP / Enz. assay) of 0.13 µM and an IC50 ([1]; read-out: CP / Enz. assay) of 0.03 µM.

From PMC6850446, “In vivo inactivation of glycosidases by conduritol B epoxide and cyclophellitol as revealed by activity‐based protein profiling” (The Febs Journal, 2019)
